These compounds were tested against T1, SARS2 protease (Severe acute respiratory syndrome coronavirus 2, UniProt P0DTD1) (assay: SARS-CoV-2 protease inhibition assay (SARS2 FRET protease assay)). Conditions: IC50 (μM), SARS2 protease 30 nM, peptide substrate 1.3 μM, 120 minutes at 37° C., compounds 20 μM to 0.075 nM.
T1 construct: SARS2 protease was added to a final concentration of 30 nM
Type: biochemical
For `CCC[C@H](NC(=O)OC(c1ccccc1)C(F)(F)c1cccc(F)c1)C(=O)N[C@@H](C[C@@H]1CCNC1=O)C(=O)C(=O)NC1CC1` (stereo partly shown) [Compound A100], the IC50 was 0.25 µM. For `CCNC(=O)C(=O)[C@H](C[C@@H]1CCNC1=O)NC(=O)[C@H](Cc1ccccc1)NC(=O)OCCCc1ccccc1` [Compound A276, 3-Phenylpropyl ((S)-1-(((S)-4-(ethylamino)-3,4-dioxo-1-((S)-2-oxopyrrolidin-3-yl)butan-2-yl)amino)-1-oxo-3-phenylpropan-2-yl) carbamate], the IC50 was 4.15 µM. `CC(C)C[C@H](NC(=O)OC(c1ccccc1)C(F)(F)c1cccc(C2CC2)c1)C(=O)N[C@@H](C[C@@H]1CCNC1=O)C(=O)C(=O)NC1CC1` (stereo partly shown) [Compound A170] showed an IC50 of 0.0002 µM. `CCCC[C@H](NC(=O)OC(c1ccncc1)C(F)(F)c1cccc(Cl)c1)C(=O)N[C@H](C=O)C[C@@H]1CCNC1=O` (stereo partly drawn) [Compound A256, 2-(3-Chlorophenyl)-2,2-difluoro-1-(pyridin-4-yl)ethyl ((S)-1-oxo-1-(((S)-1-oxo-3-((S)-2-oxopyrrolidin-3-yl)propan-2-yl)amino)hexan-2-yl)carbamate] was tested, and the IC50 was 0.001 µM. `CCNC(=O)C(=O)[C@H](C[C@@H]1CCNC1=O)NC(=O)[C@H](CC1CCCCC1)NC(=O)OC(c1ccccc1)C(C)(C)c1cccc(F)c1` (stereo partly shown) [Compound A130] showed an IC50 of 0.088 µM. Work on `CCC(CC)(c1cccc(Cl)c1)C(OC(=O)N[C@@H](CC(C)C)C(=O)N[C@@H](C[C@@H]1CCNC1=O)C(=O)C(=O)NC1CC1)c1ccc(F)cc1` (stereo partly shown) [Compound A14] yielded an IC50 of 0.09 µM. `CCCC[C@H](NC(=O)O[C@H](c1cccc(F)c1)C(F)(F)c1cccc(F)c1)C(=O)N[C@H](C=O)C[C@@H]1CCNC1=O` [Compound A201] gave an IC50 of 0.001 µM. `CCNC(=O)C(=O)[C@H](C[C@@H]1CCNC1=O)NC(=O)[C@H](Cc1cccc(Cl)c1)NC(=O)OC(c1ccccc1)C(F)(F)c1cccc(Cl)c1` (stereo partly shown) [Compound A287] gave an IC50 of 1.06 µM. In the case of `CCCC[C@H](NC(=O)OC(c1ccccc1)C1(c2cccc(F)c2)CC1)C(=O)N[C@H](C=O)C[C@@H]1CCNC1=O` (stereo partly shown) [Compound A40], the IC50 is reported as 0.003 µM. `O=C(N[C@@H](CC1CCCCC1)C(=O)N[C@@H](C[C@H]1CCNC1=O)C(=O)C(=O)NC1CC1)OC(c1ccccc1)C(F)(F)c1cccc(Cl)c1` (stereo partly shown) [Compound A169] was tested, and the IC50 was 1.25 µM. Compound `CC(C)C[C@H](NC(=O)OC(c1cccc(Cl)c1)C1(c2cccc(Cl)c2)CCC1)C(=O)N[C@H](C=O)C[C@@H]1CCNC1=O` (stereo partly shown) [Compound A7] has an IC50 of 0.12 µM. Compound `CC(C)C[C@H](NC(=O)O[C@H](c1cccc(Cl)c1)C(C)(C)c1cccc(Cl)c1)C(=O)N[C@H](C=O)C[C@@H]1CCNC1=O` [Compound A140] has an IC50 of 0.045 µM. `CCCC[C@H](NC(=O)O[C@@H](c1ccc(F)cc1)C(F)(F)c1cccc(Cl)c1)C(=O)N[C@H](C=O)C[C@@H]1CCNC1=O` [Compound A159] was tested, and the IC50 was 0.003 µM. For `CCC(CC)(c1cccc(Cl)c1)C(OC(=O)N[C@@H](CC(C)C)C(=O)N[C@@H](C[C@@H]1CCNC1=O)C(=O)C(=O)NC1CC1)c1ccc(Cl)cc1` (stereo partly shown) [Compound A44], the IC50 was 0.74 µM. In the case of `CCCCCOC(=O)N[C@@H](CC(C)C)C(=O)N[C@@H](C[C@@H]1CCNC1=O)C(=O)C(=O)NC1CCN(C)CC1` [Compound A8], the IC50 is reported as 15 µM. Compound `CCCC[C@H](NC(=O)O[C@@H](c1cccnc1)C(F)(F)c1cccc(Cl)c1)C(=O)N[C@@H](C[C@@H]1CCNC1=O)C(=O)C(=O)NC1CC1` [Compound A301] has an IC50 of 0.0362 µM. `CCCC[C@H](NC(=O)O[C@@H](c1ccccc1)C(F)(F)c1cccc(F)c1)C(=O)N[C@H](C=O)C[C@@H]1CCNC1=O` [Compound A143] showed an IC50 of 0.004 µM. In the case of `CCC[C@H](NC(=O)O[C@@H](c1ccccc1)C(F)(F)c1cccc(F)c1)C(=O)N[C@H](C=O)C[C@@H]1CCNC1=O` [Compound A166], the IC50 is reported as 0.0025 µM. `O=C[C@H](C[C@H]1CCNC1=O)NC(=O)[C@H](CC1CCCCC1)NC(=O)OC(c1ccccc1)C(F)(F)c1cccc(Cl)c1` (stereo partly shown) [Compound A161] showed an IC50 of 0.582 µM. For `O=C(N[C@@H](CC1CCCCC1)C(=O)N[C@@H](C[C@@H]1CCNC1=O)C(=O)c1nc2ccccc2o1)OC(c1ccccc1)C(F)(F)c1cccc(Cl)c1` (stereo partly drawn) [Compound A278, 2-(3-chlorophenyl)-2,2-difluoro-1-phenylethyl ((S)-1-(((S)-1-(benzo[d]oxazol-2-yl)-1-oxo-3-((S)-2-oxopyrrolidin-3-yl)propan-2-yl)amino)-3-cyclohexyl-1-oxopropan-2-yl)carbamate], the IC50 was 0.249 µM. Work on `O=C[C@H](C[C@@H]1CCNC1=O)NC(=O)[C@H](CCCF)NC(=O)OC(c1ccccc1)C(F)(F)c1cccc(Cl)c1` (stereo partly shown) [Compound A219] yielded an IC50 of 0.16 µM. `CCCC[C@H](NC(=O)OC(c1cccc(F)c1)C1(c2cccc(F)c2)CC1)C(=O)N[C@H](C=O)C[C@@H]1CCNC1=O` (stereo partly shown) [Compound A97] gave an IC50 of 0.0021 µM. Compound `CCCC[C@H](NC(=O)OC(c1cccc(F)c1)C(F)(F)c1cccc(Cl)c1)C(=O)N[C@H](C=O)C[C@@H]1CCNC1=O` (stereo partly shown) [Compound A99] has an IC50 of 0.0006 µM. `CCNC(=O)C(=O)[C@H](C[C@@H]1CCNC1=O)NC(=O)[C@H](CC1(CC)CCC1)NC(=O)O[C@@H](c1ccccc1)C(F)(F)c1cccc(Cl)c1` [Compound A323] was tested, and the IC50 was 3.84 µM. For `CCNC(=O)C(=O)[C@H](C[C@@H]1CCNC1=O)NC(=O)[C@H](Cc1ccc(Cl)c(Cl)c1)NC(=O)OC(c1ccccc1)C(C)(C)c1cccc(Cl)c1` (stereo partly drawn) [Compound A280, 2-(3-chlorophenyl)-2-methyl-1-phenylpropyl ((S)-3-(3,4-dichlorophenyl)-1-(((S)-4-(ethylamino)-3,4-dioxo-1-((S)-2-oxopyrrolidin-3-yl)butan-2-yl)amino)-1-oxopropan-2-yl)carbamate], the IC50 was 4.5 µM. `CCNC(=O)C(=O)[C@H](C[C@@H]1CCNC1=O)NC(=O)[C@H](CC1CCCCC1)NC(=O)OC(c1ccccc1)C(F)(F)c1cccc(Cl)c1` (stereo partly shown) [Compound A50] was tested, and the IC50 was 0.01 µM. Work on `O=C[C@H](C[C@@H]1CCNC1=O)NC(=O)[C@H](Cc1ccccc1)NC(=O)OCCCc1ccccc1` [Compound A277, 3-Phenylpropyl ((S)-1-oxo-1-(((S)-1-oxo-3-((S)-2-oxopyrrolidin-3-yl)propan-2-yl)amino)-3-phenylpropan-2-yl) carbamate] yielded an IC50 of 0.218 µM. Compound `CCCC[C@H](NC(=O)OC(c1ccccc1)C(F)(F)c1cccc(Cl)c1)C(=O)N[C@H](C=O)CC1CC(C)(C)NC1=O` (stereo partly shown) [Compound A81] has an IC50 of 0.47 µM. With `NC(=O)C(=O)[C@H](C[C@@H]1CCNC1=O)NC(=O)[C@H](CC1CCCCC1)NC(=O)OC(c1ccccc1)C(F)(F)c1cccc(Cl)c1` (stereo partly shown) [Compound A204] the IC50 was 0.001 µM. Compound `O=C(N[C@@H](CC1CCCCC1)C(=O)N[C@@H](C[C@@H]1CCNC1=O)C(O)S(=O)(=O)O)O[C@@H](c1ccccc1)C(F)(F)c1cccc(F)c1` (stereo partly shown) [Compound A133] has an IC50 of 0.002 µM. Compound `CC(C)C[C@H](NC(=O)O[C@@H](c1cccc(Cl)c1)C1(c2cccc(Cl)c2)CCCCC1)C(=O)N[C@H](C=O)C[C@@H]1CCNC1=O` [Compound A54] has an IC50 of 0.14 µM. Compound `O=C(N[C@@H](CC1CCCCC1)C(=O)N[C@@H](C[C@@H]1CCCNC1=O)C(=O)C(=O)NC1CC1)OC(c1ccccc1)C(F)(F)c1cccc(Cl)c1` (stereo partly shown) [Compound A129] has an IC50 of 0.13 µM. Work on `CC(C)C[C@H](NC(=O)O[C@@H](c1ccccc1)C(C)(C)c1cccc(Cl)c1)C(=O)N[C@@H](C[C@@H]1CCNC1=O)C(=O)C(=O)NC1CC1` [Compound A4] yielded an IC50 of 0.8 µM. With `CCCC[C@H](NC(=O)O[C@@H](c1ccccc1)C(F)(F)c1cccc(Cl)c1)C(=O)N[C@@H](C[C@@H]1CCNC1=O)C(OC(=O)CC)S(=O)(=O)O` (stereo partly shown) [Compound A213] the IC50 was 5.02 µM. `CCCCCOC(=O)N[C@@H](CC(C)C)C(=O)N[C@@H](C[C@@H]1CCNC1=O)C(=O)C(=O)NC1CCCCC1` [Compound A24] was tested, and the IC50 was 21.4 µM. `CC(C)C[C@H](NC(=O)O[C@@H](c1cccc(Cl)c1)C(C)(C)c1cccc(Cl)c1)C(=O)N[C@@H](C[C@@H]1CCNC1=O)C(=O)C(=O)NC1CC1` [Compound A142] showed an IC50 of 0.032 µM. With `CCCC[C@H](NC(=O)OC(c1ccccc1)C(F)(F)c1cccc(Cl)c1)C(=O)N[C@H](C=O)C[C@H]1CCNC1=O` (stereo partly shown) [Compound A183] the IC50 was 0.019 µM. Work on `CC(C)C[C@H](NC(=O)OC(c1ccccc1)C1(c2cccc(Cl)c2)CCNCC1)C(=O)N[C@@H](C[C@@H]1CCNC1=O)C(=O)C(=O)NC1CC1` (stereo partly shown) [Compound A52] yielded an IC50 of 1.42 µM. With `O=C[C@H](C[C@@H]1CCCNC1=O)NC(=O)[C@H](CC1CCCCC1)NC(=O)OC(c1ccccc1)C(F)(F)c1cccc(Cl)c1` (stereo partly shown) [Compound A124] the IC50 was 0.0001 µM. Work on `CC(C)C[C@H](NC(=O)O[C@@H](c1ccccc1)C(C)(C)c1cccc(Cl)c1)C(=O)N[C@H](C=O)C[C@@H]1CCCNC1=O` [Compound A158] yielded an IC50 of 0.002 µM. For `O=C(N[C@@H](CC1CCCCC1)C(=O)N[C@@H](C[C@@H]1CCNC1=O)C(=O)C(=O)NC1CC1)O[C@@H](c1ccccc1)C(F)(F)c1cccc(F)c1` [Compound A236], the IC50 was 0.817 µM. Compound `CCCC[C@H](NC(=O)O[C@H](c1ccccc1)C(F)(F)c1cccc(Cl)c1)C(=O)N[C@H](C=O)C[C@@H]1CCNC1=O` [Compound A110, (R)-2-(3-chlorophenyl)-2,2-difluoro-1-phenylethyl ((S)-1-oxo-1-(((S)-1-oxo-3-((S)-2-oxopyrrolidin-3-yl)propan-2-yl)amino)hexan-2-yl)carbamate] has an IC50 of 0.0002 µM. `CC(C)C[C@H](NC(=O)OC(c1ccc(F)cc1)C(F)(F)c1cccc(Cl)c1)C(=O)N[C@H](C=O)C[C@@H]1CCNC1=O` (stereo partly shown) [Compound A1] was tested, and the IC50 was 0.0001 µM. With `CCNC(=O)C(=O)[C@H](C[C@@H]1CCNC1=O)NC(=O)[C@H](CC1CC1)NC(=O)OC(c1ccccc1)C(F)(F)c1cccc(Cl)c1` (stereo partly shown) [Compound A131] the IC50 was 0.0002 µM. Compound `CCCCC[C@H](NC(=O)O[C@H](c1ccccc1)C(F)(F)c1cccc(Cl)c1)C(=O)N[C@H](C=O)C[C@@H]1CCNC1=O` [Compound A218] has an IC50 of 0.001 µM. In the case of `CCCC[C@H](NC(=O)O[C@@H](c1cccnc1)C(F)(F)c1cccc(Cl)c1)C(=O)N[C@H](C=O)C[C@@H]1CCNC1=O` [Compound A267, (S)-2-(3-chlorophenyl)-2,2-difluoro-1-(pyridin-3-yl)ethyl ((S)-1-oxo-1-(((S)-1-oxo-3-((S)-2-oxopyrrolidin-3-yl)propan-2-yl)amino)hexan-2-yl)carbamate], the IC50 is reported as 0.009 µM.
